Data taken from PMC12250302, “Synthesis, Antimicrobial Activities, and Model of Action of Novel Tetralone Derivatives Containing Aminoguanidinium Moiety” (International Journal of Molecular Sciences, 2025).
≈ marks a conversion by molar mass, not a printed value.

Key:
A. baumannii ATCC 19606 = assay: MIC and MBC testing, broth microdilution; format: cell-based, Acinetobacter baumannii; conditions: Acinetobacter baumannii; for MIC: ATCC19606, 18 h, read-out: MIC; for MBC: ATCC19606, read-out: MBC
Outline: (§1)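 Broth microdilution in MH broth, 2-fold compound series from DMSO stocks; inoculum from log-phase culture diluted to 1 × 10^6 CFU/mL prior to addition; 37 °C, 18 h.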

S. aureus ATCC 29213 = assay: MIC and MBC testing, broth microdilution; format: cell-based, Staphylococcus aureus; conditions: Staphylococcus aureus, ATCC29213, S. aureus ATCC 29213; for MIC: 18 h, read-out: MIC; for MBC: read-out: MBC
Outline: as §1

[1] = system: K. pneumoniae ATCC 700603; assay: MIC and MBC testing, broth microdilution; format: cell-based, Klebsiella pneumoniae; conditions: Klebsiella pneumoniae; for MIC: ATCC700603, 18 h, read-out: MIC; for MBC: ATCC700603, read-out: MBC
Outline: as §1

P. aeruginosa ATCC 27853 = assay: MIC and MBC testing, broth microdilution; format: cell-based, Pseudomonas aeruginosa; conditions: Pseudomonas aeruginosa; for MIC: ATCC27853, 18 h, read-out: MIC; for MBC: ATCC27853, read-out: MBC
Outline: as §1

MRSA = assay: MIC testing, summary over MRSA strains; format: cell-based; conditions: Staphylococcus aureus; against MRSA
Protocol: (§2) The minimum inhibitory concentration (MIC) of all synthesized compounds was tested by the broth microdilution method. In brief, compounds dissolved in DMSO were diluted twice continuously in a 96-well plate with MH broth. The ESKAPE pathogens (E. coli ATCC 25922, S. aureus ATCC 29213, K. pneumoniae ATCC 700603, A. baumannii ATCC 19606, P. aeruginosa ATCC 27853, and E. faecium ATCC 35667), clinical S. aureus isolates (LMY45, LMY46, LMY47, and LMY48) and methicillin-resistant Staphylococcus aureus (MRSA-1 and MRSA-2) were cultured in MH broth to logarithmic growth phase and then diluted to 1 × 10^6 CFU/mL in MH broth. Subsequently, the diluted bacterial solution was mixed with the diluted compound solution in a 96-well plate and incubated at 37 °C for a duration of 18 h. The MIC of the compounds was recorded as the lowest concentration at which no visible growth was observed. […] Each concentration was replicated thrice.

[2] = system: S. aureus, including MRSA; assay: MIC testing, summary over S. aureus strains; format: cell-based; conditions: Staphylococcus aureus
Protocol: as §2

MRSA-1 = assay: MIC and MBC testing, broth microdilution; format: cell-based, Staphylococcus aureus; conditions: Staphylococcus aureus, MRSA-1; for MIC: 18 h, read-out: MIC; for MBC: read-out: MBC
Outline: (§3)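 Strains (clinical S. aureus LMY45, LMY46, LMY48; MRSA-1) grown to logarithmic phase, diluted to 1 × 10^6 CFU/mL and exposed 18 h at 37 °C to twofold serial compound dilutions in Mueller-Hinton broth, triplicates. Outputs are MIC and bactericidal concentration (MBC).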

[3] = system: clinical S. aureus isolate LMY47; assay: MIC and MBC testing, broth microdilution; format: cell-based, Staphylococcus aureus; conditions: Staphylococcus aureus, LMY47; for MIC: 18 h, read-out: MIC; for MBC: read-out: MBC
Outline: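 Strains grown to logarithmic phase were diluted to 1 × 10^6 CFU/mL, combined with compound two-fold dilution series in MH broth, and incubated at 37 °C for 18 h. MIC and MBC were then recorded, with triplicate wells per concentration.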

[4] = system: clinical S. aureus isolate LMY46; assay: MIC and MBC testing, broth microdilution; format: cell-based, Staphylococcus aureus; conditions: Staphylococcus aureus, LMY46; for MIC: 18 h, read-out: MIC; for MBC: read-out: MBC
Outline: as §3

[5] = system: clinical S. aureus isolate LMY45; assay: MIC and MBC testing, broth microdilution; format: cell-based, Staphylococcus aureus; conditions: Staphylococcus aureus, LMY45; for MIC: 18 h, read-out: MIC; for MBC: read-out: MBC
Outline: as §3

MRSA-2 = assay: MIC and MBC testing, broth microdilution; format: cell-based, Staphylococcus aureus; conditions: Staphylococcus aureus, MRSA-2; for MIC: 18 h, read-out: MIC; for MBC: read-out: MBC
Outline: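 MIC and MBC determined by broth microdilution with twofold compound dilutions (from DMSO stock) in MH broth. Log-phase inoculum at 1 × 10^6 CFU/mL; 18 h incubation at 37 °C.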

[6] = system: clinical S. aureus isolate LMY48; assay: MIC and MBC testing, broth microdilution; format: cell-based, Staphylococcus aureus; conditions: Staphylococcus aureus, LMY48; for MIC: 18 h, read-out: MIC; for MBC: read-out: MBC
Outline: as §3

E. coli ATCC 25922 = assay: MIC and MBC testing, broth microdilution; format: cell-based, Escherichia coli; conditions: Escherichia coli; for MIC: ATCC25922, 18 h, read-out: MIC; for MBC: ATCC25922, read-out: MBC
Outline: as §1

E. faecium ATCC 35667 = assay: MIC and MBC testing, broth microdilution; format: cell-based, Enterococcus faecium; conditions: Enterococcus faecium, ATCC35667, E. faecium ATCC 35667; for MIC: 18 h, read-out: MIC; for MBC: read-out: MBC
Outline: as §1

## [H]/N=C(\N)NN=C1CCCc2cc(OCc3ccc(F)c(Cl)c3)ccc21 [Compound 1U, (E)-2-(6-((3-chloro-4-fluorobenzyl)oxy)-3,4-dihydronaphthalen-1(2H)-ylidene)hydrazine-1-carboximidamide]
A. baumannii ATCC 19606
  MIC: 4 µg/mL (≈ 11.1 µM)
  MBC: 16 µg/mL (≈ 44.3 µM)
S. aureus ATCC 29213
  MIC: 2 µg/mL (≈ 5.54 µM)
  MBC: 4 µg/mL (≈ 11.1 µM)
[1]
  MIC: 8 µg/mL (≈ 22.2 µM)
  MBC: 32 µg/mL (≈ 88.7 µM)
P. aeruginosa ATCC 27853
  MIC: 16 µg/mL (≈ 44.3 µM)
  MBC: > 32 µg/mL
MRSA
  MIC: 1 to 2 µg/mL (≈ 2.77 to 5.54 µM)
[2]
  MIC: 0.5 to 4 µg/mL (≈ 1.39 to 11.1 µM)
MRSA-1
  MIC: 2 µg/mL (≈ 5.54 µM)
  MBC: 32 µg/mL (≈ 88.7 µM)
[3]
  MIC: 2 µg/mL (≈ 5.54 µM)
  MBC: 4 µg/mL (≈ 11.1 µM)
[4]
  MIC: 1 µg/mL (≈ 2.77 µM)
  MBC: 4 µg/mL (≈ 11.1 µM)
[5]
  MIC: 2 µg/mL (≈ 5.54 µM)
  MBC: 2 µg/mL (≈ 5.54 µM)
MRSA-2
  MIC: 1 µg/mL (≈ 2.77 µM)
  MBC: 4 µg/mL (≈ 11.1 µM)
[6]
  MIC: 4 µg/mL (≈ 11.1 µM)
  MBC: 8 µg/mL (≈ 22.2 µM)
E. coli ATCC 25922
  MIC: 4 µg/mL (≈ 11.1 µM)
  MBC: 16 µg/mL (≈ 44.3 µM)
E. faecium ATCC 35667
  MIC: 2 µg/mL (≈ 5.54 µM)
  MBC: 16 µg/mL (≈ 44.3 µM)

## [H]/N=C(\N)NN=C1CCCc2cc(OCCCC)ccc21 [Compound 2A, (E)-2-(6-butoxy-3,4-dihydronaphthalen-1(2H)-ylidene)hydrazine-1-carboximidamide]
A. baumannii ATCC 19606
  MIC: 8 µg/mL (≈ 29.2 µM)
  MBC: 16 µg/mL (≈ 58.3 µM)
S. aureus ATCC 29213
  MIC: 4 µg/mL (≈ 14.6 µM)
  MBC: > 32 µg/mL
[1]
  MIC: 16 µg/mL (≈ 58.3 µM)
  MBC: > 32 µg/mL
P. aeruginosa ATCC 27853
  MIC: 32 µg/mL (≈ 117 µM)
  MBC: 32 µg/mL (≈ 117 µM)
MRSA
  MIC: 1 to 2 µg/mL (≈ 3.64 to 7.29 µM)
[2]
  MIC: 0.5 to 4 µg/mL (≈ 1.82 to 14.6 µM)
MRSA-1
  MIC: 2 µg/mL (≈ 7.29 µM)
  MBC: 2 µg/mL (≈ 7.29 µM)
[3]
  MIC: 2 µg/mL (≈ 7.29 µM)
  MBC: 2 µg/mL (≈ 7.29 µM)
[4]
  MIC: 2 µg/mL (≈ 7.29 µM)
  MBC: 4 µg/mL (≈ 14.6 µM)
[5]
  MIC: 2 µg/mL (≈ 7.29 µM)
  MBC: 4 µg/mL (≈ 14.6 µM)
MRSA-2
  MIC: 1 µg/mL (≈ 3.64 µM)
  MBC: 2 µg/mL (≈ 7.29 µM)
[6]
  MIC: 1 µg/mL (≈ 3.64 µM)
  MBC: 2 µg/mL (≈ 7.29 µM)
E. coli ATCC 25922
  MIC: 16 µg/mL (≈ 58.3 µM)
  MBC: > 32 µg/mL
E. faecium ATCC 35667
  MIC: 8 µg/mL (≈ 29.2 µM)
  MBC: 32 µg/mL (≈ 117 µM)

## [H]/N=C(\N)NN=C1CCCc2cc(OCC=C(C)C)ccc21 [Compound 2I, (E)-2-(6-((3-methylbut-2-en-1-yl)oxy)-3,4-dihydronaphthalen-1(2H)-ylidene)hydrazine-1-carboximidamide]
A. baumannii ATCC 19606
  MIC: 16 µg/mL (≈ 55.9 µM)
  MBC: 32 µg/mL (≈ 112 µM)
S. aureus ATCC 29213
  MIC: 4 µg/mL (≈ 14 µM)
  MBC: 32 µg/mL (≈ 112 µM)
[1]
  MIC: 32 µg/mL (≈ 112 µM)
  MBC: > 32 µg/mL
P. aeruginosa ATCC 27853
  MIC: 32 µg/mL (≈ 112 µM)
  MBC: 32 µg/mL (≈ 112 µM)
MRSA
  MIC: 1 to 2 µg/mL (≈ 3.49 to 6.98 µM)
[2]
  MIC: 0.5 to 4 µg/mL (≈ 1.75 to 14 µM)
MRSA-1
  MIC: 2 µg/mL (≈ 6.98 µM)
  MBC: 16 µg/mL (≈ 55.9 µM)
[3]
  MIC: 2 µg/mL (≈ 6.98 µM)
  MBC: 8 µg/mL (≈ 27.9 µM)
[4]
  MIC: 2 µg/mL (≈ 6.98 µM)
  MBC: 2 µg/mL (≈ 6.98 µM)
[5]
  MIC: 2 µg/mL (≈ 6.98 µM)
  MBC: 4 µg/mL (≈ 14 µM)
MRSA-2
  MIC: 1 µg/mL (≈ 3.49 µM)
  MBC: 2 µg/mL (≈ 6.98 µM)
[6]
  MIC: 1 µg/mL (≈ 3.49 µM)
  MBC: 2 µg/mL (≈ 6.98 µM)
E. coli ATCC 25922
  MIC: 16 µg/mL (≈ 55.9 µM)
  MBC: 32 µg/mL (≈ 112 µM)
E. faecium ATCC 35667
  MIC: 8 µg/mL (≈ 27.9 µM)
  MBC: 32 µg/mL (≈ 112 µM)
